Experimental data from patent US20080153866A1, “Amorphous Taclolimus Solid Dispersion Having an Enhanced Solubility and Pharmaceutical Composition Comprising Same” (Hinmi Pharm Co., Ltd, priority 2005, published 2008).

Tests used:
[1] = cited from earlier work
[2] = Thermodynamic stability test (endothermic peak in DSC scan); assay type: physicochemical
Excerpt: The mixture of Comparative Example 1, solid dispersion of Example 1 and crystalline taclolimus were each subjected to a thermodynamic stability test by examining the change in the endothermic peak in its DSC scan. The temperatures representing respective endothermic peaks are represented in Table 17, and the overall DSC results are shown in FIG. 1.

Endothermic peak temperature [2]: 127.0 °C
Structure (SMILES): C=CC[C@@H]1/C=C(\C)C[C@H](C)C[C@H](OC)[C@H]2O[C@@](O)(C(=O)C(=O)N3CCCCC3C(=O)O[C@H](/C(C)=C/C3CC[C@@H](O)[C@H](OC)C3)[C@H](C)[C@@H](O)CC1=O)[C@H](C)C[C@@H]2OC (stereo partly drawn) [Taclolimus, (—)-(1R,9S,13R,14S,17R,18E,21S,23S,24R,25S,27R)-17-allyl-1,14-dihydroxy-12-[(E)-2-[(1R,3R,4R)-4-hydroxy-3-methoxycyclohexyl]-1-methylvinyl]-23,25-dimethoxy-13,19,21,27-tetramethyl-11,28-dioxa-4-azatricyclo[22.3.1.0^4.9]octacos-18-ene-2,3,10,16-tetrone hydrate]
Solubility in organic solvents ([1]; organic solvents such as anhydrous ethanol): very soluble | Solubility in water ([1]; water): insoluble in water
